{"source": "patent US20060014709A1", "about": "“Drug or cosmetic” (priority 2002, published 2006)", "type_in_all_cases": "in vivo", "key": {"[1]": {"system": "male SD rats, obstruction-released kidney (glomerular lesions and tubulointerstitial lesions)", "assay": "Obstruction release model after complete obstruction of unilateral ureter for 14 days (Example 2-2)", "parameters": "key to Tubulointerstitial lesions: level of lesions: summed lesion score; + = 1, ++ = 2, +++ = 3; ≤6.5 improved", "conditions": "rat, 30 mg/kg subcutaneously", "excerpt": "(§1) That is, the rat was laparotomized under anesthesia with ether and left ureter was ligated with 7-0 Nylon at the height of the margin of lower pole of kidney to close the abdomen. On the 14th day after obstruction, the obstruction was released and urinary passage was reconstructed using a cuff. Thus, after 14 days, the part of ligated obstructed ureter was resected, a polyethylene tube of 25 gages (manufactured by Nippon Sherwood) was used as a cuff and inserted into and retained at the lumen from the cut end of the lower normal ureter, then the cuff was also retained in the expanded upper ureter and each of them was ligated and fixed by 7-0 Nylon to reconstruct the urinary passage. At the same time, the right kidney at the opposite side was excised. After the release of the obstruction, body weight was measured, blood was drawn on the 2nd day, 5th day and 7th day from the release to measure serum creatinine, then the rat was killed under anesthesia and the left obstruction-released kidney was excised.\n(§2) An in vivo biological test was carried out for the γ-lactone derivative according to the present invention using this model. Bulk powder of a test compound was dissolved in sterile physiological saline together with gum arabic, and concentrations of the test compound and gum arabic were adjusted to 30 mg/mL and 5% respectively. The preparation was administered orally or subcutaneously injected at the dose of 30 mg/kg or 3 mg/kg every day. The administration was conducted for the total 21 days of the obstructed period for 14 days and after release of the obstruction for 7 days.\nFor cell surface markers of leukocyte cells which infiltrate the obstruction-released kidney, ED1, CD11b (ED8), CD5 and CD2 were used. […] For CD5^+, a number of not less than 20 per glomerulus was considered as positive. For glomerular lesions, which was characterized by Bowman's capsule wall, glomerular hyalinosis, dilation of urinary space pole and hypertrophy of parietal cells, 50 glomeruli were evaluated to obtain a proportion of pathologic glomeruli. For tubulointerstitial lesions, levels of the lesions were represented by qualifying hyperplasia of tubular basement membrane, tubular enlargement and atrophy and interstitial fibrosis. Scoring was as follows: + gets 1-point as a light lesion; ++ gets 2-point as a moderate lesion; and +++ gets 3-point as a severe lesion. Levels of cell infiltration were evaluated qualitatively according to the above three-point scale. For glomerular lesions, when a proportion of lesioned glomeruli was decreased to not more than 20%, and for tubulointerstitial lesions, when a score of the lesions was not more than 6.5, it was considered as improved.\nNumbers of cells positive for CD11b (ED8), CD2 and CD5 were compared by means of immunopathology, and CD11b^+CD2^+ macrophages were considered as regeneration-promoting macrophages in glomeruli and CD11b^−CD2^+CD5+ macrophages were considered as regeneration-promoting macrophages to tubulointerstitial lesions, and herewith, it was estimated whether each cell group is quantitatively dominant or not."}, "[2]": {"system": "male SD rats, obstruction-released kidney (glomerular lesions and tubulointerstitial lesions)", "assay": "Obstruction release model after complete obstruction of unilateral ureter for 14 days (Example 2-1)", "parameters": "key to Tubulointerstitial lesions: level of lesions (quality): summed lesion score: + = 1, ++ = 2, +++ = 3 points", "conditions": "rat", "excerpt": "as §1\nWith regard to the excised kidney, there were carried out measurements of weight of the kidney, creatinine concentration mg/dl in plasma as an indicator of kidney function and pathological test for the kidney, and also leukocyte cells which infiltrate the obstruction-released kidney were immunopathologically studied with cell surface markers for ED1 macrophages, CD11b (ED8) positive macrophages and CD5 positive lymphocytes. A number of positive cells was expressed as a number of cells per glomerulus from measured numbers of positive cells in five glomeruli, and for a number in tubulointerstitial tissue, it was expressed by the total number of cells existing in five fields of 200×magnification. For macrophages, a number of CD11b positive cells existing in glomerulus was considered as a number of CD11b^+CD2^+ macrophages and a case of existing not less than one positive cell per glomerulus was considered as positive (+). In the tubulointerstitial tissue, a number of […] 60 CD11b positive cells was considered as positive (+), or a case of CD11b^−CD2^+ macrophages dominantly increasing. Scoring of evaluation of tubulointerstitial lesions was as follows: + gets 1-point as a light lesion; ++ gets 2-point as a moderate lesion; and +++ gets3-point as a severe lesion. For glomerular lesions, when a proportion of lesioned glomeruli was decreased to not more than 40%, and for tubulointerstitial lesions, when a score of the lesions was not more than 4, it was considered as improved.\nFor glomerular lesions, by counting glomeruli causing thickening of Bowman's capsule wall and glomerular hyalinosis, a proportion of glomeruli having lesions was calculated. For tubulointerstitial lesions, by qualifying hyperplasia of tubular basement membrane and interstitial fibrosis, levels of the lesions were represented.\nas §2\nFor test groups, a group administered single compound group, a group administered both compound group and a control group administered solution of gum arabic were set up and compared for renal functions and morphological evaluations, as well as numbers of ED1, CD5, CD11b positive cells by means of immunopathology."}, "[3]": {"system": "male SDT rats (spontaneously type II diabetes model), complete skin-excised wounds", "assay": "Complete skin-excised model, wound healing", "conditions": "SDT rat, 10 mg/kg subcutaneously every day", "excerpt": "Using male SDT rats of 28-30 weeks age, which were a spontaneously type II diabetes model, promoting effect on repair and regeneration in wound healing after complete skin excision were examined according to a partially modified method of Breitbout AS et al. (Ann Plast Surg 1999, 43: 632). That is, an animal was shaved at its back under anesthesia with ether, and skin in 2×2 cm size was excised together with panniculus carnosus in same size to make two complete skin-excised wounds per animal.\nHealings of the wounds were observed on the 1st day, 4th day, 7th day, 12h day, 15th day, 21st day and 28th day from the operation. An area of the wounds was obtained as the product of the average vertical length and the average horizontal length which were measured along with a direction of the longest part in the wound.\nA test compound was dissolved in sterile physiological saline together with gum arabic. Concentrations of the test compound and gum arabic were adjusted to 30 mg/mL and 5% respectively. The preparation was subcutaneously injected at the dose of 10 mg/kg every day. The administration was started on 6 days before the operation and continued to 28 days after the operation."}, "[4]": {"conditions": "30 mg/kg subcutaneously every day for 21 days, one value per animal, 30 mg/kg"}}, "note": "Where “and” joins values, the source holds several entries; their conditions need not be identical. Identical values can stand only once. Entries after “also recorded” stand apart in the source; their conditions may differ. Marks after values point to notes of the source that are not given here."}
{"smiles": "C[C@@H](OC(=O)[C@@]1(Oc2ccc(F)cc2)CCC(=O)O1)c1ccc2ccccc2c1", "note": "[compound (II-1), (R)-1-naphthalen-2-ylethyl (R)-2-(4-fluorophenoxy)-5-oxotetrahydrofuran-2-carboxylate]", "values": [{"measurement": "cases in which regeneration-promoting CD11b^+CD2^+ macrophages were predominant in glomeruli", "setting": "[1]", "result": "all five cases"}, {"measurement": "cases in which regeneration-promoting CD11b^−CD2^+CD5+ macrophages were predominant in tubulointerstitial lesions", "setting": "[1]", "result": "negative in tubulointerstitial lesions in all cases"}, {"measurement": "pathological improvement of glomerular lesions (cases)", "setting": "[1]", "result": "only one case"}, {"measurement": "pathological improvement of tubulointerstitial lesions (cases)", "setting": "[1]", "result": "all five cases"}, {"measurement": "Regeneration macrophages to glomerular lesions, Determination Increase +", "setting": "[1]; one value per animal", "result": "+ (a case of existing not less than one positive cell per glomerulus was considered as positive (+))"}, {"measurement": "Degree of cell infiltration", "setting": "[1]; one value per animal, 30 mg/kg", "result": "+++"}, {"measurement": "Number of regeneration CD11b^+CD2^+ macrophages to glomerular lesions: number of positive cells per glomerulus CD11b^+CD2^+", "setting": "[1]; one value per animal, 30 mg/kg", "result": "1.2 cells per glomerulus and 1.7 cells per glomerulus and 1.1 cells per glomerulus and 2.8 cells per glomerulus and 2.0 cells per glomerulus"}, {"measurement": "Number of regeneration CD11b^−CD2^+CD5^+ macrophages to tubulointerstitial lesions: number of positive cells in five fields of 200× magnification, CD5^+", "setting": "[1]; one value per animal, 30 mg/kg", "result": "6 cells in five fields of 200× m and 9 cells in five fields of 200× m and 3 cells in five fields of 200× m (2×) and 4 cells in five fields of 200× m"}, {"measurement": "Number of regeneration CD11b^−CD2^+CD5^+ macrophages to tubulointerstitial lesions: number of positive cells in five fields of 200× magnification, CD11b^+", "setting": "[1]; one value per animal, 30 mg/kg", "result": "39 cells in five fields of 200× m and 49 cells in five fields of 200× m and 15 cells in five fields of 200× m and 65 cells in five fields of 200× m and 26 cells in five fields of 200× m"}, {"measurement": "Serum creatinine", "setting": "[1]; one value per animal, 30 mg/kg", "result": "2.6 mg/dl and 1.7 mg/dl (2×) and 2.0 mg/dl and 1.8 mg/dl"}, {"measurement": "Tubulointerstitial lesions: level of lesions", "setting": "[1]; one value per animal, 30 mg/kg", "result": "8.0 (4×) and 6.0"}, {"measurement": "Glomerular lesions: proportion of lesioned glomeruli (%)", "setting": "[1]; one value per animal, 50 glomeruli evaluated, 30 mg/kg", "result": "16% (2×) and 12% (2×) and 8%"}, {"measurement": "cases with increased regeneration-promoting CD11b^+CD2^+ macrophages to glomerular lesions", "setting": "[2]; 30 mg/kg subcutaneously", "result": "all five cases"}, {"measurement": "cases with increased regeneration-promoting CD11b^−CD2^+ macrophages to tubulointerstitial lesions", "setting": "[2]; 30 mg/kg subcutaneously", "result": "four of five cases"}, {"measurement": "pathological improvement of glomerular lesions (cases)", "setting": "[2]; 30 mg/kg subcutaneously", "result": "four of five cases"}, {"measurement": "pathological improvement of tubulointerstitial lesions (cases)", "setting": "[2]; 30 mg/kg subcutaneously", "result": "no tubulointerstitial lesion was improved"}, {"measurement": "Regeneration CD11b^+CD2^+ macrophages to glomerular lesions, Determination: increase = +", "setting": "[2]; 30 mg/kg subcutaneously every day for 21 days, one value per animal", "result": "+ (a case of existing not less than one positive cell per glomerulus was considered as positive (+))"}, {"measurement": "Coincidence of two regeneration macrophages being positive", "setting": "[2]; [4]", "result": "Coincident; also recorded: Not coincident"}, {"measurement": "Glomerular lesions: proportion of lesioned glomeruli (%)", "setting": "[2]; [4]", "result": "10% and 14% and 22% and 57% and 23%"}, {"measurement": "Number of regeneration CD11b^+CD2^+ macrophages to glomerular lesions: number of positive cells per glomerulus", "setting": "[2]; [4]", "result": "1.2 cells per glomerulus and 1.7 cells per glomerulus and 1.1 cells per glomerulus and 2.8 cells per glomerulus and 2.0 cells per glomerulus"}, {"measurement": "Number of regeneration CD11b^−CD2^+ macrophages to tubulointerstitial lesions: number of positive cells (CD11b) in five fields of 200× magnification", "setting": "[2]; [4]", "result": "39 cells in five fields of 200× m and 49 cells in five fields of 200× m and 15 cells in five fields of 200× m and 65 cells in five fields of 200× m and 26 cells in five fields of 200× m"}, {"measurement": "Regeneration CD11b^−CD2^+ macrophages to tubulointerstitial lesions, Determination: increase +", "setting": "[2]; [4]", "result": "+ (a number of not more than 60 CD11b positive cells was considered as positive (+))"}, {"measurement": "Serum creatinine", "setting": "[2]; [4]", "result": "2.6 mg/dl and 1.7 mg/dl (2×) and 2.0 mg/dl and 1.8 mg/dl"}, {"measurement": "Tubulointerstitial lesions: level of lesions (quality)", "setting": "[2]; [4]", "result": "7.5 and 9.0 (2×) and 8.0 and 6.5"}, {"measurement": "Excised wound area (cm^2)", "setting": "[3]; 1st day after complete skin excision", "result": 3.33, "unit": "cm^2"}, {"measurement": "Excised wound area (cm^2)", "setting": "[3]; 4th day after complete skin excision", "result": 2.31, "unit": "cm^2"}, {"measurement": "Excised wound area (cm^2)", "setting": "[3]; 7th day after complete skin excision", "result": 1.62, "unit": "cm^2"}, {"measurement": "Excised wound area (cm^2)", "setting": "[3]; 12th day after complete skin excision", "result": "0.52** cm^2"}, {"measurement": "Excised wound area (cm^2)", "setting": "[3]; 15th day after complete skin excision", "result": 0.55, "unit": "cm^2"}, {"measurement": "Excised wound area (cm^2)", "setting": "[3]; 21st day after complete skin excision", "result": 0.44, "unit": "cm^2"}, {"measurement": "Crust formation/number of wound", "setting": "[3]; 21st day after the operation", "result": "0/8"}, {"measurement": "crust formation on the surface of repaired wounds (in words)", "setting": "[3]; 28th day", "result": "no crust formation occurred"}, {"measurement": "Excised wound area (cm^2)", "setting": "[3]; 28th day after complete skin excision", "result": 0.29, "unit": "cm^2"}, {"measurement": "Crust formation/number of wound", "setting": "[3]; 28th day after the operation", "result": "1/8"}, {"measurement": "promoting effect on wound healing (in words)", "setting": "[3]; versus the control group, 10 mg/kg", "result": "significant promoting effect on wound healing at 12th day after the operation; also recorded: promoting effect on healing of epidermis"}]}
